Experimental data taken from ChEMBL document CHEMBL4842355, “Improved potency of pyridin-2(1H)one derivatives for the treatment of mechanical allodynia” (Eur J Med Chem, 2021).
pIC50: −log10 of the molar value.

What was measured:
[1] = target: T1, Mitogen-activated protein kinase 14 (Homo sapiens, UniProt Q16539); assay: Inhibition of p38 alpha (unknown origin) assessed as residual activity at 1 uM relative to control
[2] = target: T1, Mitogen-activated protein kinase 14; assay: Inhibition of p38 alpha (unknown origin) at 1 uM relative to control
Rattus norvegicus = assay: Anti-allodynic activity in complete freund's adjuvant-induced rat inflammatory pain model assessed as inhibition of inflammatory mechanical allodynia at 10 uM, ic administered 30 min before CFA injection and measured after 120 mins by Von Frey filament assay relative to control; format: functional; conditions: 2.5 h, time 150 min
[3] = target: T1, Mitogen-activated protein kinase 14; assay: Inhibition of p38 alpha (unknown origin)

T1 sequence (Q16539 whole entry): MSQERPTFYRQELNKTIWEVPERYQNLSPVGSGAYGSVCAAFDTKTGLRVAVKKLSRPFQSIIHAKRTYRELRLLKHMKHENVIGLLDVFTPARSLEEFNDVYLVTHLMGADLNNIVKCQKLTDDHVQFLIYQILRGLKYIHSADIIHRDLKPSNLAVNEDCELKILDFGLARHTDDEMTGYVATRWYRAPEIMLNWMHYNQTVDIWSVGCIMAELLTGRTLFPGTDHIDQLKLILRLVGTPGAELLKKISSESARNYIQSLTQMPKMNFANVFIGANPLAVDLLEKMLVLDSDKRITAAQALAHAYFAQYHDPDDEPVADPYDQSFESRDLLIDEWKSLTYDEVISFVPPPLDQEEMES

Row | Structure (SMILES) | Activity [1] [%] | inhibition [2] [%] | pIC50 [3] | inhibition in vivo at 10 µM (Rattus norvegicus) [%]
1 | CCOC(=O)c1ccccc1Nc1c[nH]c(=O)c(-c2cccc3[nH]ccc23)c1 | 104 | – | – | –
2 | O=c1[nH]cc(Nc2ccncc2)cc1-c1cccc2[nH]ccc12 | 67 | 33 | – | 100
3 | COc1ccccc1Nc1c[nH]c(=O)c(-c2cccc3[nH]ccc23)c1 | 50 | – | – | > 80
4 | Cc1ccccc1Nc1c[nH]c(=O)c(-c2cccc3[nH]ccc23)c1 | 33 | – | 5.96 | > 80
5 | O=c1[nH]cc(Nc2ccccc2[N+](=O)[O-])cc1-c1cccc2[nH]ccc12 | 92.3 | – | – | > 80
6 | O=c1[nH]cc(Nc2ccc(F)cc2)cc1-c1cccc2[nH]ccc12 | 39 | – | 6.40 | > 80
7 | O=c1[nH]cc(Nc2cccnc2)cc1-c1cccc2[nH]ccc12 | 64 | – | – | –
8 | O=c1[nH]cc(Nc2ccccn2)cc1-c1cccc2[nH]ccc12 | 70 | – | – | > 80
9 | O=c1[nH]cc(Nc2ccccc2)cc1-c1ccccc1Br | 59 | 41 | – | 65
10 | CCOC(=O)c1ccc(Nc2c[nH]c(=O)c(-c3cccc4[nH]ccc34)c2)cc1 | 86 | – | – | –
11 | O=c1[nH]cc(Nc2ccccc2F)cc1-c1cccc2[nH]ccc12 | 28 | 72 | – | –
12 | COc1ccc(Nc2c[nH]c(=O)c(-c3cccc4[nH]ccc34)c2)cc1 | 59 | – | – | 16
13 | O=c1[nH]cc(Nc2ccc([N+](=O)[O-])cc2)cc1-c1cccc2[nH]ccc12 | 93 | – | – | 98

More lines, main results first:

Row | Activity [1] [%] | inhibition [2] [%] | pIC50 [3] | Structure (SMILES) | inhibition in vivo at 10 µM (Rattus norvegicus) [%]
14 | 73.9 | – | – | O=c1[nH]cc(Nc2cccc([N+](=O)[O-])c2)cc1-c1cccc2[nH]ccc12 | –
15 | 50 | – | – | COc1cccc(Nc2c[nH]c(=O)c(-c3cccc4[nH]ccc34)c2)c1 | > 80
16 | 31 | – | 6.15 | O=c1[nH]cc(Nc2cccc(Br)c2)cc1-c1cccc2[nH]ccc12 | –
17 | 43 | – | 5.62 | O=c1[nH]cc(Nc2ccc(Br)cc2)cc1-c1cccc2[nH]ccc12 | –
18 | 34 | – | 6.00 | O=c1[nH]cc(Nc2cccc(O)c2)cc1-c1cccc2[nH]ccc12 | –
19 | 59 | – | – | O=c1[nH]cc(Nc2ccccc2)cc1-c1cccc2[nH]ccc12 | –
20 | 45 | – | – | O=c1[nH]cc(Nc2ccccc2Br)cc1-c1cccc2[nH]ccc12 | –
21 | 81 | – | – | CCOC(=O)c1cccc(Nc2c[nH]c(=O)c(-c3cccc4[nH]ccc34)c2)c1 | > 80
22 | 47 | – | 5.85 | O=c1[nH]cc(Nc2cccc(F)c2)cc1-c1cccc2[nH]ccc12 | > 80
